Laboratory results as given in publication PMC8618880, “Discovery of GOT1 Inhibitors from a Marine-Derived Aspergillus terreus That Act against Pancreatic Ductal Adenocarcinoma” (Marine Drugs, 2021).

Columns and labels:
[1] = biological target: T1, GOT1 (Homo sapiens, UniProt P17174); test: GOT1 enzymatic activity (inhibition) assay, MDH-coupled, absorbance 340 nm; assay type: biochemical; details: in vitro, read-out: GOT1-inhibitory activity IC50
Protocol: The GOT1 enzymatic activity assay was carried out using a 96-well plate reader as previously reported. The 100 μL reaction system contained 0.1 mg/mL recombinant GOT1 protein, 1 mM α -KG, 1 mM NADH, 4 mM Asp, and 1 U/mL malate dehydrogenase, and measured absorbance at a wavelength of 340 nm. The degree of absorbance decrease was in direct proportion to GOT1 activity. The inhibitory activity in vitro was measured by adding different concentrations of compounds. SigmaPlot with the PlotEnzyme Kinetics Module was used to analyze the enzyme activity.

[2] = biological target: T1, GOT1; test: Microscale thermophoresis (MST) binding to GOT1; details: read-out: Kd value between AH and GOT1
Protocol: The Monolith NTTM Protein Labeling Kit was used to test the binding capacity of proteins to AH, according to the manufacturer’s instructions. GOT1 was labeled and diluted in a buffer containing 20 mM HEPES (pH 7.5) and Tween-20 (0.5 (v/v)%), and then incubated with different concentration of AH for 10 min at 37 °C. Subsequently, the materials were put into standard capillary tubes and tested for thermophoresis using a Monolith NT.115 instrument (NanoTemper Technologies, München, Germany). The parameters were set to temperature 25 °C, LED power 100%, and laser power 40%, with a 30 s on-time. NTAnalysis software was used to calculate the Kd values.

[3] = tested on: SW1990, PANC-1, and AsPC-1 cell lines; test: MTT cell viability assay, PDAC cell lines; assay type: cell-based; details: Homo sapiens, 48 h, read-out: cytotoxicity IC50
Protocol: (§1) Pancreas (SW1990, AsPC-1, PANC-1), colorectal (HCT116), breast (HCC1806, MM231, MM453), and ovarian cancer cells (ES2), along with a nonmalignant human pancreatic duct epithelial cell line (HDPE6C7), were obtained from ATCC, and were cultured in 1640 medium or Dulbecco’s modified Eagle medium (DMEM) supplemented with 10% (v/v) fetal bovine serum (FBS), 100 μg/mL streptomycin, and 100 U/mL penicillin. Cells were maintained in a humidified atmosphere of 5% CO2 at 37 °C. MTT (3-(4,5-dimethylthiazol-2-yl)-2,5-diphenyl tetrazolium bromide) assay was used to assess the cell viability. Briefly, cells were seeded in 96-well plates at a density of 5 × 10^3 cells per well for 24 h. Then, the medium was removed, and the cells were treated with different concentrations (0.1–100 μM) of AH, with DMSO as a vehicle control. After incubation for 48 h, 100 μL of MTT solution (2 mg/mL) was added to each well, and the wells were incubated at 37 °C for another 4 h. The formed formazan crystals were dissolved in DMSO (200 μL/well) and shaken for 5 min. Then, the absorbance of the solution was measured at 490 nm with a microplate reader. IC50 values were interpolated from the resulting dose-dependent curves using GraphPad Prism 7.0. The reported IC50 values are the average of three independent experiments, each consisting of six replicates per concentration level (overall n = 18).

[4] = MTT cell viability assay, nonmalignant pancreatic duct epithelial cells; assay type: cell-based; details: human, HPDE6C7 nonmalignant pancreatic duct epithelial cells, read-out: cytotoxicity IC50
Protocol: as §1

[5] = tested on: SW1990 cells; test: Annexin V-FITC/PI apoptosis assay by flow cytometry; assay type: cell-based, human; details: 48 h
Protocol: The Annexin V–FITC apoptosis kit was purchased from USA BD PharMingen™. In brief, different concentrations of AH were added to the wells for 48 h, and then the cells were harvested, before being resuspended in Annexin-binding buffer and incubated with Annexin V–FITC (10 mg/mL) and PI in the dark for 15 min. Flow cytometry was used to detect the stained cells and analyze the apoptosis immediately.

[6] = tested on: SW1990 cells; test: Cell cycle assay, PI staining, flow cytometry; assay type: cell-based, human
Protocol: The phase distribution of DNA content was determined via propidium iodide (PI) staining. Cells were treated with varying doses of AH or vehicle for 48 h, and then the cell pellets were stained in the dark for 30 min with 60 μg/mL RNase A and 30 μg/mL PI. Finally, CellQuest software (Becton-Dickinson, Franklin Lakes, NJ, USA) was used to perform flow cytometric studies. Three separate experiments were used to determine the cell cycle.

[7] = tested on: SW1990 cells; test: Metabolite abundance and NADPH/NADP+ ratio in cells; assay type: cell-based, human; details: AH 10, 20 or 40 µM
Protocol: SW1990 cells were cultivated to around 50% confluence in DMEM media with 10 mM glucose, 2 mM glutamine, and 5% FBS. A complete medium was prepared prior to two hours of metabolite collection. Quantification kits were used to determine the abundance of Asp (Abcam, #ab102512, Cambridge, UK), Gln (BioVision, #K55, San Francisco, CA, USA), malate (BioVision, #K637, San Francisco, CA, USA), and OAA (Abcam, #ab83428, Cambridge, UK). According to the manufacturer’s instructions, we collected some cells and homogenized them in the buffers provided. The supernatants were centrifuged, and then deproteinized using a 10 K spin column before being analyzed and compared to standard curves.

[8] = tested on: SW1990 cells; test: Intracellular ROS measurement with DCFDA; assay type: cell-based, human; details: AH 10, 20 or 40 µM
Source text: GOT1 is a key enzyme that is involved in the production of Gln-dependent NADPH in PDAC, and catalyzes the reversible conversion of Asp to OAA. To investigate the effects of AH on Gln metabolism, the associated metabolites including OAA and malate (Mal) were detected. […] As excessive reactive oxygen species (ROS) can enhance cellular oxidative stress—resulting in damage to DNA, proteins, or lipids, causing apoptosis or necrosis [29]—we examined the physiological correlation between AH treatment and ROS response. 2,7-Dichlorofluorescein diacetate (DCFDA) was used to measure the intracellular ROS levels.

[9] = tested on: SW1990 cells; test: EDU staining and wound-healing cell migration test; assay type: cell-based, human; details: 0-40 µM, 0-48 h
Protocol: SW1990 cells were seeded in 6-well plates for 24 h. Each well was scratched with a 10 μL pipette tip, and then the plate was washed with PBS to peel off the suspended cells, before adding different concentrations of AH (0–40 μM). Images from the same area of the wound were taken separately under a microscope from 0 to 48 h.

[10] = tested on: SW1990 xenografts; test: SW1990 xenograft in CB-17/SCID mice; assay type: in vivo
Protocol: Animal treatment and experiments were conducted in the Experimental Animal Center. Commercial 8-week-old CB-17/SCID mice (male) were purchased from Huafukang, China. After being resuspended using 0.1 mL of PBS, SW1990 cells (3 × 10^6) were injected subcutaneously into the lower flanks of the mice. When the tumors attained a diameter of ~3 mm, the mice were randomly divided into three groups—2.5 mg/kg, 5 mg/kg, and control—and were subsequently injected intraperitoneally with normal saline or AH every day. A Vernier caliper was used to measure the size of the tumors. After two weeks of therapy, mice were euthanized under deep anesthesia (chloral hydrate, 10%, 10 μL/g), and tumor tissue metabolites were detected using the above method. All animal studies were carried out in accordance with the Huazhong University of Science and Technology’s guidelines.

[11] = 2.5 and 5 mg/kg/d intraperitoneal, 14 days
[12] = tumor tissue after 14 days treatment

T1 sequence (P17174 whole entry): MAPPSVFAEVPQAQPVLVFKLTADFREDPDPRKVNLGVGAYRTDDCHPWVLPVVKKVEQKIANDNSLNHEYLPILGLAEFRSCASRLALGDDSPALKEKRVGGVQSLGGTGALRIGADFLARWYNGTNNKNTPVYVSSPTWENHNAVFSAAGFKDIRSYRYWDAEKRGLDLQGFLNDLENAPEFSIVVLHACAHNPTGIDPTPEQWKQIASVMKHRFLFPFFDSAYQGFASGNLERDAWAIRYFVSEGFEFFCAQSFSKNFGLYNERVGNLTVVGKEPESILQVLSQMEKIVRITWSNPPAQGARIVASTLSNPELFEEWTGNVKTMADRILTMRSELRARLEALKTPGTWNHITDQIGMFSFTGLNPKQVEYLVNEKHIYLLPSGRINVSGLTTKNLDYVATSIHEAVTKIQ

`COC(=O)[C@]1(Cc2ccc(O)c(CC=C(C)C)c2)OC(=O)C(O)=C1c1ccc(O)c(CC=C(C)C)c1` [Compound 12, (+)-3′,3′-di-(dimethylallyl)-butyrolactone II] gave an IC50 [1] of 26.38 ± 0.1 µM.
In the case of `CO[C@H]1OC(=O)C(c2ccc(O)cc2)=C1Cc1ccc(O)c(CC=C(C)C)c1` [Compound 5, (+)-asperteretone B], the IC50 [1] is reported as 19.16 ± 0.15 µM.
`CC(C)=CCc1cc(/C=C2\OC(=O)C(c3ccc(O)c(CC=C(C)C)c3)=C2O)ccc1O` [Compound 6, aspulvinone H] gave an IC50 [1] of 5.91 ± 0.04 µM, a Kd [2] of 2.14 ± 0.47 µM and an IC50 [3] of 6.32 to 10.5 µM. The IC50 at 48 h [4] was > 100 µM, the apoptosis induction rate ([5]; SW1990, 10 µM) was 9.5% and the apoptosis induction rate ([5]; SW1990, 40 µM) was 80.2%. The “proportion of S-phase cells” value ([6]; SW1990, 10 µM) was 32.5%, the “proportion of cells in G0/G1 phase” value ([6]; SW1990, 10 µM) was 59.4% and the “proportion of S-phase cells” value ([6]; SW1990, 20 µM) was 38.6%. For the same molecule, the “proportion of cells in G0/G1 phase” value ([6]; SW1990, 20 µM) was 48.6%, the “proportion of S-phase cells” value ([6]; SW1990, 40 µM) was 43.9% and the “proportion of cells in G0/G1 phase” value ([6]; SW1990, 40 µM) was 43.5%. For the same molecule, the “change in G2/M phase” value ([6]; SW1990, high-dose AH) was “only a slight increase”, the “content of Asp” value [7] was “increasing” and the “content of Mal” value [7] was “reduced”. For the same molecule, the “content of OAA” value [7] was “reduced”, the “ratio of NADPH/NADP+” value [7] was “remarkably decreased” and the “intracellular ROS level” value [8] was “positively correlated”. For the same molecule, the “proliferation and migration (EDU staining, wound healing)” value [9] was “anti-proliferative effect”, the “body weight of the mice” value [10, 11] was “no significant changes” and the “histomorphology of the mice” value [10, 11] was “no significant changes”. The “tumor volume vs control group” value ([10]; 2.5 and 5 mg/kg/d intraperitoneal, 14 days, CB-17/SCID mice) was “significantly smaller”, the “tumor tissue Asp” value [10, 12] was “increased” and the “tumor tissue Gln” value [10, 12] was “increased”. For the same molecule, the “tumor tissue Mal” value [10, 12] was “decreased”, the “tumor tissue OAA” value [10, 12] was “decreased” and the “tumor tissue proportion of NADPH/NADP+” value [10, 12] was “decrease”.
